Experimental data: US10533034B2, “Human iNKT cell activation using glycolipids” (ACADEMIA SINICA, priority 2014, dated 2020)

Legend:
Vα24+/Vβ11+ iNKT TCR = Vα24+/Vβ11+ iNKT TCR (Homo sapiens, UniProt A0A075B6N4+A0A0B4J240+P15813); assay: Binding avidity of hCD1d-loaded glycolipids with Vα24+ iNKT cells (ternary interaction); settings: for Kd: in complex with hCD1d, Scatchard transformation, read-out: KD of ternary complex, hCD1d-glycolipid toward Vα24+/Vβ11+ iNKT TCR
Description: (3A) DN3A4-1.2 Vα14+ iNKT hybridoma cells and (3B) 7DW8-5-expanded Vα24^+ iNKT cells were incubated with various concentrations of the indicated dimeric mCD d-glycolipid and hCD1d-glycolipid complexes for 30 min at 4° C., respectively. The level of bound complexes at the indicated concentration was detected by anti-mIgG1 secondary antibody and analyzed by flow cytometry. The relationship between the binding percentage and the concentration of CD1ddi-glycolipids complex was plotted in mice (3A) and humans (3B). KD values in mice (3C) and humans (3D) were calculated from Scatchard transformation of the plot (3A) and 3B), respectively. Assay was performed in duplicates. Binding avidity of human CD1d-glycolipid complexes to Vα24^+ iNKT cells expanded by 7DW8-5 at 100 ng/ml was determined as described previously.^19 Next, we measured the ternary interaction between CD1d-glcolipid complex and the iNKT TCR in mice and humans. Different concentrations of mCD1d^di-glycolipid and hCD1d^di-glycolipid complexes were incubated with fixed amounts of DN3A4-1.2 murine iNKT hybridoma cells and human Vα24+/Vβ11^+ iNKT cells, respectively. The level of bound complexes at the indicated concentration was detected by anti-mIgG1 secondary antibody and analyzed by flow cytometry (FIGS. 3A and 3B). The KD of the ternary complex was calculated from the Scatchard transformation of the plots in FIGS. 3A and 3B using GraphPad Prism software. […] This was consistent with the observation that higher percentages of C1-pulsed splenocytes were stained by the mCD1d-7DW8-5 complex (36.2±5.0%) than mCD1d-7DW8-5-Glc complex (17.1±0.8%) (FIG. 11).

[1] = test system: iNKT TCR of DN3A4-1.2 Vα14+ iNKT hybridoma cells; assay: Binding avidity of mCD1d-loaded glycolipids to Vα14+ iNKT cells (ternary interaction); set-up: species or system mouse
Description: (3A) DN3A4-1.2 Vα14+ iNKT hybridoma cells and (3B) 7DW8-5-expanded Vα24^+ iNKT cells were incubated with various concentrations of the indicated dimeric mCD d-glycolipid and hCD1d-glycolipid complexes for 30 min at 4° C., respectively. The level of bound complexes at the indicated concentration was detected by anti-mIgG1 secondary antibody and analyzed by flow cytometry. The relationship between the binding percentage and the concentration of CD1ddi-glycolipids complex was plotted in mice (3A) and humans (3B). KD values in mice (3C) and humans (3D) were calculated from Scatchard transformation of the plot (3A) and 3B), respectively. Assay was performed in duplicates.
Briefly, murine CD1d:Ig dimer (BD Biosciences PharMingen, San Diego, Calif.) was loaded with glycolipids at a molar ratio of 1:10 or vehicle for overnight at 37° C. Murine 1.2 Vα14+ iNKT cells were incubated with various doses of dimer-glycolipid complex in buffer containing azide (0.05%) for 30 min at 4° C. These cells were then stained with anti-mouse IgG1-PE mAb (A85-1) for another 30 min at 4° C., followed by washing, fixation with 4% paraformaldehyde (PFA), and the bound mCD1d dimer complexes were detected by flow cytometry. The binding curve and linear fit of the Scatchard transformation were plotted by Graphpad Prism software.
Next, we measured the ternary interaction between CD1d-glcolipid complex and the iNKT TCR in mice and humans. Different concentrations of mCD1d^di-glycolipid and hCD1d^di-glycolipid complexes were incubated with fixed amounts of DN3A4-1.2 murine iNKT hybridoma cells and human Vα24+/Vβ11^+ iNKT cells, respectively. The level of bound complexes at the indicated concentration was detected by anti-mIgG1 secondary antibody and analyzed by flow cytometry (FIGS. 3A and 3B). The KD of the ternary complex was calculated from the Scatchard transformation of the plots in FIGS. 3A and 3B using GraphPad Prism software. […] This was consistent with the observation that higher percentages of C1-pulsed splenocytes were stained by the mCD1d-7DW8-5 complex (36.2±5.0%) than mCD1d-7DW8-5-Glc complex (17.1±0.8%) (FIG. 11).

B6 wild type mice = assay: Murine serum cytokine/chemokine secretion after i.v. glycolipid, wild type mice; format: in vivo, mouse
Description: B6 wild type mice were i.v. injected with 7DW8-5-Glc at 0.1 or 1 μg/mouse. Sera collected at 2 h and 18 h post-injection were analyzed for chemokine secretions such as IP-10 (6A), KC (6B), MCP-1 (6C), and MIP-1α (6D). These chemokines peaked at 2 hr post-injection.
B6 wild type and Jα18 knockout mice were i.v. injected with the indicated glycolipids (1 μg/mouse) or vehicle. Sera collected at 2 h and 18 h post-injection were analyzed for cytokines like IL-2 (7A), IL-6 (7B), GM-CSF (7C) and TNFα (7D) as well as chemokines such as IP-10 (7E), MIG (7F), KC (7G) and MCP-1 (7H). Only MIG peaked at 18 hr post-injection, while the others peaked at 2 hr post-injection.
All the glycolipids were dissolved in 100% DMSO at a concentration of 1-2 mg/ml. For in vivo experiments, all compounds were diluted to 10 μg/ml in saline just before injection of 100 μl diluted glycolipid or 100 μl 1% DMSO into mice. Pathogen-free C57BL/6 female mice aged 6-12 weeks were obtained from the National Laboratory Animal Center (Taipei, Taiwan). Jα18 knockout (KO) B6 mice were the gifts from Dr. Masaru Taniguchi (RIKEN Research Center for Allergy and Immunology, Yokohama, Japan). All the mice were maintained in pathogen free vivarium of Institute of Cellular and Organismic Biology, Academia Sinica (Taipei, Taiwan).
B6 WT or Jα18 KO mice were intravenously injected with vehicle or glycolipids at 0.1 or 1 μg/mouse. Serum was collected at 2 and 18 h after injection for measurement of cytokines/chemokines by Beadlyte® Mouse Cytokine kit (Millipore, N.Y.) and read by a Luminex® 200™ system (Luminex, Austin, Tex.).
Previously, 0.1 μg/mouse of 7DW8-5 was sufficient for immune stimulation,^19 but higher dosage (1 μg/mouse) was required for the glucose analog 7DW8-5-Glc to induce immune responses (FIG. 6). Thus, the biological activities of newly synthesized glycolipids were tested in B6 mice 2 and 18 hr after i.v. injection of glycolipids at 1 μg/mouse. […] As compared to GSLs with αGlc, GSLs with αGal induced higher levels of cytokines and chemokines, including IFN-γ, IL-2, IL-4, IL-6, GM-CSF, TNFα and IP-10.

Kd (Vα24+/Vβ11+ iNKT TCR) [nM]	staining of human iNKT cells with CD1d-glycolipid dimer (Vα24+/Vβ11+ iNKT TCR)	Compound	fold stronger interaction with iNKT TCR than mCD1d-7DW8-5-Glc complex ([1]; mCD1d complex) [fold]	levels of KC, MCP-1, IP-10 and MIG chemokines induced (B6 wild type mice; 1 μg/mouse i.v., 2 and 18 hr)	levels of Th1 and Th2 cytokines induced (B6 wild type mice; 1 μg/mouse i.v., 2 and 18 hr)	dosage required to induce immune responses (B6 wild type mice; i.v., sera 2 h and 18 h) [μg/mouse]	induction of serum cytokines/chemokines (B6 wild type mice; 1 μg/mouse i.v., 2 and 18 hr)	staining of murine iNKT cells with CD1d-glycolipid dimer [1]
0.777 ± 0.022		CCCCCCCCCCCCCC[C@@H](O)[C@@H](O)[C@H](CO[C@H]1O[C@H](CO)[C@H](O)[C@H](O)[C@H]1O)NC(=O)CCCCCCCCCCc1ccc(F)cc1 [Compound 7DW8-5, reference compound]	~10					
0.481 ± 0.008		CC[C@@H](O)[C@@H](O)[C@H](CO[C@H]1OC(CO)[C@@H](O)C(O)C1O)NC(=O)Cc1ccc(F)cc1 (stereo partly drawn) [Compound 7DW8-5-Glc]		relatively high levels	very low levels	1		
	lack of staining	CCCCCCCCCCCCCC[C@@H](O)[C@@H](O)[C@H](CO[C@H]1O[C@H](CO)[C@@H](O)[C@H](O)[C@@H]1O)NC(=O)CCCCCCCCCCc1ccc(F)cc1 [Compound 7DW8-5-Man]					failed to induce any cytokines/chemokines	lack of staining
